Patent publication US20250197424A1, “QUINOLINE COMPOUND AND USE THEREOF” (SHANGHAI PHARMACEUTICALS HOLDING CO., LTD., priority 2022, published 2025)
Structures can show the parent of a compound that is named as a salt.

What follows are compounds tested against GTP-KRAS-G12D:SOS1 (Homo sapiens (Human), UniProt P01116, G12D) (assay: GTP-KRAS-G12D:SOS1 binding inhibition).
Experimental: The IC50 of the compounds was fitted using a nonlinear regression equation with GraphPad Prism 8. The results are presented in Table 2: • Negative control: DMSO • Positive control: 100 μM BI-2852
The following nonlinear fitting formula was used to obtain the IC50 (half-maximal inhibitory concentration) of the compounds:
[formula] • X: logarithm of the compound concentration • Y: 665/615 Ratio

GTP-KRAS-G12D:SOS1, sequence (P01116-2 other isoform, or with tags, fused parts or gaps G12D): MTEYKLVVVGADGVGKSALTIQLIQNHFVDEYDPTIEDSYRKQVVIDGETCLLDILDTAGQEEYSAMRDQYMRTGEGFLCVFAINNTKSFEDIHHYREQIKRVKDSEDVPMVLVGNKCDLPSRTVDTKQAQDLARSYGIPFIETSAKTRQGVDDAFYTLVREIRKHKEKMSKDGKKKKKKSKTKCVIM

| SMILES | IC50 [nM] |
| --- | --- |
| Cc1cc(N)nc(-c2c(F)c3c4c(nc(OC[C@@]56CCCN5C[C@H](F)C6)nc4c2F)N2CC4CCC(N4)C2CO3)c1C(F)(F)F (single isomer, unassigned) [10a′, (S or R)-6-((5aS,6S,9R)-1,3-Difluoro-13-(((2R,7aS)-2-fluorotetrahydro-1H-pyrrolizin-7a(5H)-yl)methoxy)-5a,6,7,8,9,10-hexahydro-5H-6,9-epiminoazepino[2′,1′:3,4][1,4]oxazepino[5,6,7-de]quinazolin-2-yl)-4-methyl-5-(trifluoromethyl)pyridin-2-amine] | 700 |
| CCc1cccc2cc(O)cc(-c3c(F)c4c5c(nc(OC[C@@]67CCC8(CC8)N6C[C@H](F)C7)nc5c3F)N3CC5CCC(N5)C3CO4)c12 (single isomer, unassigned) [Compound 20b, 4-((2S or 2R,5aS,6S,9R)-1,3-difluoro-13-(((6′R,7a'S)-6′-fluorotetrahydrospiro[cyclopropane-1,3′-pyrrolizin]-7a′ (5′H)methoxy)-5a,6,7,8,9,10-hexahydro-5H-[6,9]epiminoazepino[2′,1′:3,4][1,4]oxazepino[5,6,7-de]quinazolin-2-yl)-5-ethylnaphthalen-2-oldihydrochloride] | 8.81 |
| CCc1cccc2cc(O)cc(-c3c(F)c4c5c(nc(OC[C@]67C[C@@H](F)CN6C[C@@H](CN6CCN(C)CC6)C7)nc5c3F)N3CC5CCC(N5)C3CO4)c12 (single isomer, unassigned) [Compound 29b, 4-((2R or 2S, 5aS,6S,9R)-1,3-difluoro-13-(((2R,6R,7aS)-2-fluoro-6-((4-methylpiperazin-1-yl)methyl)tetrahydro-1H-pyrrolizin-7a(5H)-yl)methoxy)-5a,6,7,9,10-hexahydro-5H-6,9-epiminoazepino[2′,1′:3,4][1,4]oxazepino[5,6,7-de]quinazolin-2-yl)-5-ethylnaphthalen-2-ol tetrahydrochloride] | 15.7 |
| COc1ccc(-c2cc[nH]n2)c(-c2c(F)c3c4c(nc(OC[C@@]56CCCN5C[C@H](F)C6)nc4c2F)N2CC4CCC(N4)C2CO3)c1 (stereo partly drawn) [Compound 17, (5aS,6S,9R)-1,3-Difluoro-13-(((2R,7aS)-2-fluorotetrahydro-1H-pyrrolizin-7a(5H)-yl)methoxy)-2-(5-methoxy-2-(1H-pyrazol-3-yl)phenyl)-5a,6,7,8,9,10-hexahydro-5H-6,9-epiminoazepino[2′,1′:3,4][1,4]oxazepino[5,6,7-de]quinazoline dihydrochloride] | 8310 |
| Oc1ccc(-c2cc[nH]n2)c(-c2c(F)c3c4c(nc(OC[C@@]56CCCN5C[C@H](F)C6)nc4c2F)N2CC4CCC(N4)C2CO3)c1 (stereo partly drawn) [Compound 24, 3-((5aS,6S,9R)-1,3-Difluoro-13-(((2R,7aS)-2-fluorotetrahydro-1H-pyrrolizin-7a(5H)-yl)methoxy)-5a,6,7,8,9,10-hexahydro-5H-6,9-epiminoazepino[2′,1′:3,4][1,4]oxazepino[5,6,7-de]quinazolin-2-yl)-4-(1H-pyrazol-3-yl) phenol dihydrochloride] | 2070 |
| CCc1cccc2cc(O)cc(-c3c(F)c4c5c(nc(OC[C@]67C[C@@H](F)CN6C[C@@H](OC)C7)nc5c3F)N3CC5CCC(N5)C3CO4)c12 (single isomer, unassigned) [Compound 16b, 4-((2S or 2R,5aS,6S,9R)-1,3-difluoro-13-(((2R,6S,7aS)-2-fluoro-6-methoxytetrahydro-1H-pyrrolizin-7a(5H)-yl)methoxy)-5a,6,7,8,9,10-hexahydro-5H-6,9-epiminoazepino[2′, l′: 3,4][1,4]oxazepino[5,6,7-de]quinazolin-2-yl)-5-ethylnaphthalen-2-ol dihydrochloride] | 7.55 |
| Oc1cc(-c2c(F)c3c4c(nc(OC[C@@]56CCCN5C[C@H](F)C6)nc4c2F)N2CC4CCC(N4)C2CO3)c2c3c(ccc2c1)CCC3 (single isomer, unassigned) [Compound 14b, 9-((2S or 2R,5aS,6S,9R)-1,3-difluoro-13-(((2R,7aS)-2-fluorotetrahydro-1H-pyrrolizin-7a(5H)-yl)methoxy)-5a,6,7,8,9,10-hexahydro-5H-6,9-epiminoazepino[2′,1′:3,4][1,4]oxazepino[5,6,7-de]quinazolin-2-yl)-2,3-dihydro-1H-cyclopenta[a]naphthalen-7-ol dihydrochloride] | 15.3 |
| Oc1cc(-c2c(F)c3c4c(nc(OC[C@@]56CCCN5C[C@H](F)C6)nc4c2F)N2CC4CCC(N4)C2CO3)c2c(C3CC3)cccc2c1 (single isomer, unassigned) [Compound 11b, 5-cyclopropyl-4-((2S or 2R,5aS,6S,9R)-1,3-difluoro-13-(((2R,7aS)-2-fluorotetrahydro-1H-pyrrolizin-7a(5H)-yl)methoxy)-5a,6,7,8,9,10-hexahydro-5H-6,9-epiminoazepino[2′,1′:3,4][1,4]oxazepino[5,6,7-de]quinazolin-2-yl) naphthalen-2-ol dihydrochloride] | 18.5 |
| CCc1cccc2cc(O)cc(-c3c(F)c4c5c(nc(OC[C@@]67CCCN6C[C@H](F)C7)nc5c3F)N3CC5CCC(N5)C3CCO4)c12 (single isomer, unassigned) [Compound 13b, 4-((2R or 2S, 6aS,7S,10R)-1,3-difluoro-14-(((2R,7aS)-2-fluorotetrahydro-1H-pyrrolizin-7a(5H)-yl)methoxy)-5,6,6a,7,8,9,10,11-octahydro-7,10-epiminoazepino[1′,2′: 5,6][1,5]oxazocino[4,3,2-de]quinazolin-2-yl)-5-ethylnaphthalen-2-ol dihydrochloride] | 8930 |
| CCc1cccc2cc(O)cc(-c3c(F)c4c5c(nc(OC[C@@]67C[C@H](O)CN6C[C@H](F)C7)nc5c3F)N3CC5CCC(N5)C3CO4)c12 (single isomer, unassigned) [Compound 15a, (2S,6R,7aS)-7a-((((2R or 2S, 5aS,6S,9R)-2-(8-Ethyl-3-hydroxynaphthalen-1-yl)-1,3-difluoro-5a,6,7,8,9,10-hexahydro-5H-6,9-epiminoazepino[2′,1′:3,4][1,4]oxazepino[5,6,7-de]quinazolin-13-yl)oxy)methyl)-6-fluorohexahydro-1H-pyrrolizin-2-ol dihydrochloride] | 2670 |

Continued, values first:

| IC50 [nM] | SMILES |
| --- | --- |
| 5300 | CCc1cccc2cc(O)cc(-c3c(F)c4c5c(nc(OC[C@]67C[C@@H](F)CN6C[C@@H](CN6CCOCC6)C7)nc5c3F)N3CC5CCC(N5)C3CO4)c12 (single isomer, unassigned) [Compound 28a, 4-((2R or 2S, 5aS,6S,9R)-1,3-Difluoro-13-(((2R,6R,7aS)-2-fluoro-6-(morpholinomethyl)tetrahydro-1H-pyrrolizin-7a(5H)-yl)methoxy)-5a,6,7,8,9,10-hexahydro-5H-6,9-epiminoazepino[2′,1′:3,4][1,4]oxazepino[5,6,7-de]quinazolin-2-yl)-5-ethylnaphthalen-2-ol trihydrochloride] |
| 15.7 | Cc1cc(N)nc(-c2c(F)c3c4c(nc(OC[C@@]56CCCN5C[C@H](F)C6)nc4c2F)N2C[C@@H]4CCC(N4)[C@H]2CCO3)c1C(F)(F)F (single isomer, unassigned) [Compound 26b, 6-((2R or 2S, 6aS,7S,10R)-1,3-difluoro-14-(((2R,7aS)-2-fluorotetrahydro-1H-pyrrolizin-7a(5H)-yl)methoxy)-5,6,6a,7,8,9,10,11-octahydro-7,10-epiminoazepino[1′,2′: 5,6][1,5]oxazocino[4,3,2-de]quinazolin-2-yl)-4-methyl-5-(trifluoromethyl)pyridin-2-amine] |
| 3690 | CCc1cccc2cc(O)cc(-c3c(F)c4c5c(nc(OC[C@]67C[C@@H](F)CN6C[C@@H](CO)C7)nc5c3F)N3CC5CCC(N5)C3CO4)c12 (single isomer, unassigned) [Compound 23a, 4-((2R or 2S, 5aS,6S,9R)-1,3-Difluoro-13-(((2R,6S,7aS)-2-fluoro-6-(hydroxymethyl)tetrahydro-1H-pyrrolizin-7a(5H)-yl)methoxy)-5a,6,7,8,9,10-hexahydro-5H-6,9-epiminoazepino[2′,1′:3,4][1,4]oxazepino[5,6,7-de]quinazolin-2-yl)-5-ethylnaphthalen-2-ol dihydrochloride] |
| 7220 | CCc1cccc2cc(O)cc(-c3c(F)c4c5c(nc(OC[C@]67C[C@@H](F)CN6C[C@H](CO)C7)nc5c3F)N3CC5CCC(N5)C3CO4)c12 (single isomer, unassigned) [Compound 21a, 4-((2R or 2S, 5aS,6S,9R)-1,3-Difluoro-13-(((2R,6R,7aS)-2-fluoro-6-(hydroxymethyl)tetrahydro-1H-pyrrolizin-7a(5H)-yl)methoxy)-5a,6,7,8,9,10-hexahydro-5H-6,9-epiminoazepino[2′,1′:3,4][1,4]oxazepino[5,6,7-de]quinazolin-2-yl)-5-ethylnaphthalen-2-ol dihydrochloride] |
| 15.2 | CCc1cccc2cc(O)cc(-c3c(F)c4c5c(nc(OC[C@]67C[C@@H](F)CN6C[C@@H](CN6CCOCC6)C7)nc5c3F)N3CC5CCC(N5)C3CO4)c12 (single isomer, unassigned) [Compound 28b, 4-((2S or 2R,5aS,6S,9R)-1,3-difluoro-13-(((2R,6R,7aS)-2-fluoro-6-(morpholinomethyl)tetrahydro-1H-pyrrolizin-7a(5H)-yl)methoxy)-5a,6,7,8,9,10-hexahydro-5H-6,9-epiminoazepino[2′,1′:3,4][1,4]oxazepino[5,6,7-de]quinazolin-2-yl)-5-ethylnaphthalen-2-ol trihydrochloride] |
| 17.2 | CCc1cccc2cc(O)cc(-c3c(F)c4c5c(nc(OC[C@]67C[C@@H](F)CN6C[C@@H](CN6CCCCC6)C7)nc5c3F)N3CC5CCC(N5)C3CO4)c12 (single isomer, unassigned) [Compound 27b, 4-((2S or 2R,5aS,6S,9R)-1,3-difluoro-13-(((2R,6R,7aS)-2-fluoro-6-(piperidin-1-ylmethyl)tetrahydro-1H-pyrrolizin-7a(5H)-yl)methoxy)-5a,6,7,8,9,10-hexahydro-5H-6,9-epiminoazepino[2′,1′:3,4][1,4]oxazepino[5,6,7-de]quinazolin-2-yl)-5-ethylnaphthalen-2-ol trihydrochloride] |
